Results reported in patent EP0047620A1, “Aryl diazabicyclyl amides, a process for their preparation and use” (BEECHAM GROUP PLC, priority 1980, dated 1982).

How the values were obtained:
rat = experiment: Increase in intragastric pressure in the rat; assay type: in vivo; conditions: conscious restrained rats, subcutaneous administration, increase in intragastric pressure over 40 minute period after dosing
Experimental: Intragastric pressure changes were recorded from previously starved conscious but retrained rats using a saline filled catheter inserted into the lumen of the stomach via a permanent gastric fistula. The catheter was connected to a physiological pressure transducer and pressure changes recorded on a hot wire pen recorder. In each animal a pre-dose period of 40 minutes was allowed to obtain a measure of spontaneous activity. An index of activity was obtained by measuring the average height of pressure waves during 10 minute periods. Values for 4 such periods were obtained during assessment of spontaneous activity and for the 40 minute period after the subcutaneous administration of the compounds. Students 't' test was applied to the difference in average values obtained for spontaneous and post-compound activity.

mouse = experiment: Inhibition of apomorphine induced climbing in the mouse; assay type: in vivo; conditions: sc, apomorphine 1 mg/kg s.c., compounds given subcutaneously, climbing scored at 10, 20 and 30 minutes, I + number = inactive at that dose
Experimental: The test is based on that described by Protais, P., Constantin, J. and Schwartz, J.C.
Apomorphine 1 mg/kg s.c. induces mice to climb the wall of a wire cage (inverted food hopper - 11 x 7.5 x 18 cm high). Mice acclimatised in their home cages in groups of 5 are placed under the hoppers immediately after the injection of apomorphine 1 mg/kg s.c. At 10, 20 and 30 minutes after injection climbing behaviour is scored. The mice are observed for 30 seconds and scored according to the position in which they spend the majority of time, score O - four paws on floor of cage; score 1 - fore paws only on walls; score 2 - all paws on wall of cage. The scores at all 3 times and for each mouse are summed and mice drug treated subcutaneously compared to mice receiving apomorphine only.
Compounds were also tested for their ability to inhibit apomorphine induced climbing in the mouse.

Which results are given for `COc1cc(N)c(Cl)cc1C(=O)NC1CCN2CCCCN2C1` (racemic) [Example 2, (±) 4-Amino-5-chloro-2-methoxy-N-(3-{1,6-diazabicyclo [4,4,0]decyl}) benzamide]?
minimal effective dose (rat; Rattus norvegicus, sc, 40 min, read-out: Dose mg/kg Subcutaneously (minimum dose for activity)): 1 mg/kg; ED50 (mouse): 110 mg/kg

How did the ED50 (mouse) turn out when `COc1cc(N)c(Cl)cc1C(=O)NC1CN2CCC(c3ccccc3)CN2C1` (centres unmarked) [Example 8, 4-Amino-5-chloro-2-methoxy-N-(3-{7-phenyl-1,5-diaza-bicyclo[4,3,0]nonyl})benzamide] was run?
Its ED50 is 4.5 mg/kg.

How did the “Dose mg/kg Subcutaneously (minimum dose for activity)” value (rat) turn out when “(±) 4-Amino-5-chloro-2-methoxy-N-(7 or 8- {2-methyl-1,5-diazabicyclo[4,3,0]nonyl})benzamide [Example 14]” was run?
Its value is 0.5 mg/kg.

“(±) 4-Amino-5-chloro-2-methoxy-N-(7 or 8-{2- methyl-1,5-diazabicyclo[4,3,0]nonyl})benzamide [Example 15]” was tested. Which “Dose mg/kg Subcutaneously (minimum dose for activity)” value (rat) did it give?
Its value is 1.0 mg/kg.
